In ChEMBL document CHEMBL3507680, “University of Dundee, Gates Library screen for HepG2 cell viability”:

Experiment: Human HepG2 cell viability assay in 384 well format
Format: toxicity, cell-based
Parameters: dose 125 nL, time 70.5 hour; cytotoxicity at 70.5 h: concentration not given beside the values
Conditions: HepG2 cells, read-out: Inhibition

SMILES	cytotoxicity at 70.5 h
O=C(c1ccsc1)N1CCN(CC(O)c2cccc(F)c2)CC1 (stereo not drawn)	9.92%
COCCn1ccnc1CN1CCc2[nH]cnc2C1c1cnn(C)c1C (stereo not drawn)	-13.2%
NCC1Cc2cccc(-c3ccc(O)c(F)c3)c2O1 (stereo not drawn)	-13.6%
O=C(CN1CCCCCCC1=O)NCc1ccccn1	-1.3%
[O-][S+](Cc1c(F)cccc1Cl)Cc1nnnn1C1CC1 (stereo not drawn)	-14.6%
CCN(C)C[C@@H]1CN(S(=O)(=O)c2ccc(C#N)cc2)C[C@@H]1CO	-1.6%
Cc1nccn1C1CCCN(C(=O)Cc2cn3ccccc3n2)C1 (stereo not drawn)	16.9%
c1cncc(CN2C[C@H]3CCC[C@@H](CNc4cnccn4)[C@H]3C2)c1	-4.05%
CN1CC2(CCN(C(=O)c3[nH]cnc3-c3ccccc3)C2)OC1=O (stereo not drawn)	-3.76%
COc1ccc(C(=O)NCc2ccon2)cc1F	-5.07%
CCOc1cc(CNC(C)c2ccc(F)cc2)ccn1 (stereo not drawn)	26.8%
Cc1nc(CN2CCC23CCN(Cc2ccoc2)CC3)cs1	-6.82%
COCCN1CCN(Cc2ccco2)Cc2ccc(C)nc21	2.35%
CCS(=O)(=O)Cc1csc(-c2ccc(S(C)(=O)=O)cc2)n1	-6.86%
Cc1ccc(CSc2nc(N)cc(NCCC(=O)N3CCCC3)n2)cc1	-4.18%
O=C(Nc1ccnn1Cc1ccc(Cl)cc1)C1CCS(=O)(=O)C1 (stereo not drawn)	-8.12%
Cc1cnn(CCNCc2ccc(OCc3cscn3)cc2)c1	-6.84%
Cc1ccc(F)cc1NC(=O)CNc1cccc2c1CCCC2	-7.64%
Cc1cccc(C(=O)Nc2ccc(OC3CCN(C)CC3)cc2)c1	19.2%
COC(=O)N1CCN(CCCc2nnnn2-c2ccccc2)CC1	8.7%
CC[C@@H](C)[C@H](NC(=O)Cn1ccc2c(Cl)cccc21)C(=O)O	-13.9%
CN(C)CCn1c2c(ccc1=O)CCN(Cc1ccncc1)CC2	-4.6%
CC(C)n1cc(C(=O)N2Cc3ccccc3OC3(CCOCC3)C2)cn1	23.6%

SMILES	cytotoxicity at 70.5 h
CCCn1ccnc1CN1C[C@@H](CN2CCCN(C)CC2)[C@@H](CO)C1	-9.5%
Cc1nc[nH]c1CN1CCn2nc(CN3Cc4ccccc4C3)cc2C1	-7.32%
Cc1ccsc1C(=O)NCc1ccnc(OCC(F)(F)F)c1	-5.25%
Cc1ccc(CNC(=O)C2CCN(C(=O)c3ccco3)CC2)n1C	20.7%
CC(=O)N1CC2(CCNCC2)c2cc(Cl)ccc21	-6.66%
COc1nc2cc(C)ccc2cc1CN(C)Cc1cc(C)[nH]n1	-6.96%
Cc1noc(COCC(=O)Nc2ncccc2Br)n1	2.34%
Cc1onc(N)c1S(=O)(=O)N1CCCCC1C (stereo not drawn)	-2.67%
CC(C)c1nc(C2CCCN(C(=O)CCn3ccccc3=O)C2)no1 (stereo not drawn)	22.5%
Cc1nnc(C(C)N2CCCN(Cc3noc(C4CC4)n3)CC2)o1 (stereo not drawn)	13.7%
CCNC(=O)C1(Cc2ccc(-c3ccccc3)cc2)CCCNC1 (stereo not drawn)	4.78%
Cn1ccc(C(=O)N2CCOC(c3ccccc3)C2)cc1=O (stereo not drawn)	-7.42%
CCN1CC2(CCC1=O)CCN(CCc1nccn1C)CC2	-6.75%
O=C(Nc1ccncc1)NC1CCN(c2ccccc2OC(F)F)C1 (stereo not drawn)	1.15%
O=C1NCC(c2ccc(F)cc2)Cc2[nH]c(CCN3CCCC3)nc21 (stereo not drawn)	-20.9%
CC(NC(=O)COc1ccc(Cl)cc1Cl)c1nncn1C(C)C (stereo not drawn)	-3.07%
CN(C(=O)Nc1ccncc1)C1CCN(c2ccc(Cl)cc2)CC1	1.01%
CCOc1ccc(CNCCCn2ccnc2)cc1OC	-13.2%
CN(C)c1ccc(C(=O)N2CCCc3cc(OC(F)(F)F)ccc32)cn1	-5.84%
Cc1nc(C2CCCN(C(=O)COCCc3ccccc3)C2)no1 (stereo not drawn)	-6.43%
O=C(O)c1ccccc1-n1cnc(CN2CCc3ccccc32)c1	-7.59%
O=S(=O)(CCC1CCCO1)NCc1ncc(-c2ccccc2)o1 (stereo not drawn)	5%
COc1cc(N2CCc3ncnc(-c4ccoc4)c3CC2)ncn1	-7.42%

SMILES	cytotoxicity at 70.5 h
CNC(=O)c1cc2c(nc1N(C)C)CCN(c1ncc(F)cn1)CC2	-13.5%
CCN(CC)CCn1ccnc1-c1[nH]cnc1C	3.84%
CCN1CCN(c2ccc(F)cc2C(C)NCc2ccnn2C)CC1 (stereo not drawn)	-1.9%
O=C(Nc1ccc(Cn2cccn2)cc1)N1CCC2(CC1)OCCO2	22.5%
Cn1c(NCc2ccc(C(N)=O)cc2)nc2cc(Cl)ccc21	18.9%
CCCc1cc(C(=O)N2CCCC(n3ccnc3C)C2)[nH]n1 (stereo not drawn)	32.7%
COc1cccc2cc(CNC(=O)N3CCOC(C)(C)C3)oc12	14%
Cc1cnn(C2CCCN(C(=O)CCNS(C)(=O)=O)C2)c1 (stereo not drawn)	24.7%
Cn1cc(CC2CCN(C(=O)NCCc3cccc(O)c3)C2)cn1 (stereo not drawn)	-12.6%
CCn1nc(C)c2nc(C(C)C)nc(N3CCN(C)CC3)c21	29.8%
CC(C)c1cc(N2CCSCC2)n2nccc2n1	19.1%
CCOc1ccccc1N1CCN(c2nnc(C)o2)CC1	-13.5%
O=C(NC1CCC1)[C@@H]1CCO[C@@H]2CCN(CCc3ccccc3)C[C@H]21	-3.26%
Cn1ccc(N2CCCC(NC(=O)c3ccsc3)C2=O)n1 (stereo not drawn)	20.9%
Cc1cc(N(C)C)nc(C2(C)CCCN2C(=O)c2ccn(C)n2)n1 (stereo not drawn)	-9.18%
COc1ccccc1Nc1nc2c(C)nn(C)c2c(=O)n1C	26.9%
CCOC(=O)c1nc(CN2CCN(C(C)C(=O)NC3CC3)CC2)cs1 (stereo not drawn)	-9.09%
Fc1cnc(N2CCCn3cnc(COc4cccnc4)c3C2)nc1	-2.49%
COc1cccc(-n2c(C)cc(C(=O)NC(C)(C)C(N)=O)c2C)c1	-15.2%
O=C(c1ccc(-n2cccn2)c(F)c1)N1CCCN2CCCC2C1 (stereo not drawn)	-8.24%
CCOC(=O)N1CCC(NCC2CCN(c3cnn(C)c(=O)c3)C2)CC1 (stereo not drawn)	-6.78%
CCN(CC)S(=O)(=O)c1ccc(CNC(=O)N2CCC(C#N)CC2)cc1	-6.61%
Cc1ccc(C)c(C(NC(=O)C(C)(C)C)c2cccnc2)c1 (stereo not drawn)	-4.24%

SMILES	cytotoxicity at 70.5 h
Cc1ccnc(NCCNC(=O)Cc2c(C)[nH]c3c(C)ccc(C)c23)c1	34.5%
CC[C@H]1COCCN1C(=O)c1cnc(N2CCN(C)CC2)nc1C	-8.1%
COc1ccc(C2CCCN2C(=O)CCNc2ncccn2)cc1 (stereo not drawn)	-5.82%
CC(C)NCc1cccnc1N1CCN(c2ccccn2)CC1	-11.6%
Cc1nc(C)c(C)c(NCCSCc2[nH]cnc2C)n1	-5.17%
Cc1ccc(O[C@@H]2C[C@H]3CN(c4ncc(F)cn4)CCN3C2)cc1	-0.913%
COc1cnc(CSc2nnc(C)s2)cc1OCC(N)=O	15.1%
Cc1nc(CN2C(=O)CC[C@@H]3[C@H]2CCN3C2CCOC2)cs1 (stereo partly drawn)	1.29%
Cc1noc(C)c1C(=O)N1CCCC1c1c(C)nn(C)c1C (stereo not drawn)	-8.88%
Cc1nc(CN2CCC(CNC(=O)Nc3ccccc3)CC2)oc1C	-6.72%
COc1cccc(C(=O)N2CCCC(CNS(C)(=O)=O)C2)c1 (stereo not drawn)	-8.76%
COc1ccc2c(C)c(C(=O)N3CCC(NC(C)=O)C3)oc2c1 (stereo not drawn)	-3.36%
CCOc1ccccc1-n1c(C2CC(=O)N(C)C2)n[nH]c1=O (stereo not drawn)	-25.4%
CC(C)NC(=O)Cn1ccc2c(Cl)cccc21	-19%
O=C(C1CCC1)N1CCC2(COCc3cnc(-c4cccnc4)nc32)C1 (stereo not drawn)	-3.5%
NCC1Cc2cc(-c3cncc(C(=O)N4CCOCC4)n3)cc(Cl)c2O1 (stereo not drawn)	-4.26%
CC(C)c1nc2n(n1)CC(Nc1ncnc3c1CCC3)CC2 (stereo not drawn)	-13.9%
O=C(C1CCOC1)N1C[C@H]2CN(Cc3cccc(F)c3)C(=O)[C@H]2C1 (stereo partly drawn)	-0.77%
Cc1nc(C)n(CC2CCCN(CC(=O)Nc3c(C)n[nH]c3C)C2)n1 (stereo not drawn)	-7.16%
Cc1noc(C)c1CN(C)C(=O)Nc1cnn(CC2CCCO2)c1 (stereo not drawn)	-16.8%
Cc1nc(C(C)(C)NCc2nnc(C(C)C)o2)sc1C	1.69%
CN(C)c1cccc(C2CCCN2Cc2nnnn2C2CC2)c1 (stereo not drawn)	-1.65%
CCc1nc(C(=O)N(CC)CC(=O)N(C)C)nn1-c1ccccc1Cl	-2.5%

SMILES	cytotoxicity at 70.5 h
Clc1cccc(Cl)c1CNCCOc1ccccn1	11.6%
CN1CCC(CN(C)C(=O)c2cc(C3CCCN3C)ccn2)CC1 (stereo not drawn)	-6.76%
O=C1CCCN1Cc1ncn2c1CN(S(=O)(=O)c1cccs1)CCC2	-1.28%
CC(C)c1nc2n(n1)CC(NCc1nc(C3CC3)no1)CC2 (stereo not drawn)	-1.86%
Cc1noc(C)c1CN1Cc2nccn2CC(CN2CCOCC2)C1 (stereo not drawn)	-11.8%
Cn1cccc1C(=O)N1CCC2(CC1)CN(c1ccccn1)CCO2	-5.53%
O[C@]1(c2ccccn2)CC[C@@H]2CN(Cc3cccc4ncccc34)C[C@@H]21	15.3%
Cc1cc(C)nc(C2CCN(C(=O)c3cnco3)C2)n1 (stereo not drawn)	-6.7%
O=C(c1ccc(NC2CC2)nc1)N1CCCC(n2cccn2)C1 (stereo not drawn)	-4.81%
CNC(=O)COc1cccc(CNC(=O)c2c(C)noc2C(C)C)c1	-13.2%
O=C(NCc1ccoc1)NC1CCCN(c2ncccn2)C1 (stereo not drawn)	-4.3%
CCN(Cc1ccncc1)C1CCCN(Cc2ccc(F)cc2Cl)C1 (stereo not drawn)	1.69%
COc1cccc2c1N(Cc1noc(C3CC3)n1)CCC2	39.7%
CC(C)(C)CC(=O)N1C[C@H]2CCN[C@H]2C1	-2.71%
CS(=O)(=O)N1CCCC(n2nnn(-c3ccccc3)c2=O)C1 (stereo not drawn)	-8.01%
CCN(CC(=O)Nc1cc(C(C)(C)C)no1)Cc1ccc(Cl)s1	-3.4%
CC(C)c1nn(C)c(N2CCOCC2)c1CNCc1cscn1	-14.5%
CCCNC(=O)NC(=O)CNc1c(F)cccc1N1CCCC1	-17.8%
CC(C)c1cc(C2CCCN2C(=O)CN2C(=O)CCNC2=O)no1 (stereo not drawn)	-5.21%
COc1ccccc1OCC(=O)N1CCC[C@]2(C[C@@H](OC)CO2)C1	10.6%
CC(C)CNC(=O)[C@H]1CCS(=O)(=O)[C@@H]2CN(Cc3cccnc3)C[C@H]12	-4.4%
